A short description of test [1]: Inhibition of Hepatitis C virus NS3/4A protease using Ac-Asp-Glu-Dap (QXLTM520)-Glu-Glu-Abu-COO-Ala-Ser-Cys(5-FAMsp)-NH2 as substrate after 30 mins by fluorometric assay. Also on record: species or system Hepacivirus hominis.
Test [2] deals with Trypsin (Homo sapiens, UniProt P07477+P07478+P35030). In words: Inhibition of human trypsin using hilyte fuor 488-labeled casein as substrate after 30 mins by green protease fluorometric assay. Type of test: protein assay.

Some results are limits rather than exact numbers.

For orientation: IC50 means the concentration needed to halve the response being measured. A lower IC50 goes with inhibition by little substance. With `C[C@]1(O)CC[C@@H]2C(C(=O)O)=CO[C@@H](O[C@@H]3O[C@H](COC(=O)/C=C/c4ccccc4)[C@@H](O)[C@H](O)[C@H]3O)[C@@H]21`, the IC50 in test [1] was 100 µM; in test [2] it was above 200 µM. Consider `C[C@]1(O[C@@H]2O[C@H](COC(=O)/C=C/c3ccccc3)[C@@H](O)[C@H](O)[C@H]2O)CC[C@@H]2C(C(=O)O)=CO[C@@H](O[C@@H]3O[C@H](COC(=O)/C=C/c4ccccc4)[C@@H](O)[C@H](O)[C@H]3O)[C@@H]21`, for which the results for the IC50 in test [1] and in test [2] were 125 µM and above 200 µM, respectively.

As to `C/C(=C\CO)CC/C=C(\C)C(=O)OC/C=C(\C)CC/C=C(\C)C(=O)O`, the IC50 in test [1] is 126 µM; in test [2], above 200 µM. For the compound `CC(=O)OC/C=C(\C)CC/C=C(\C)C(=O)OC/C=C(\C)CC/C=C(\C)C(=O)O`, the IC50 in test [1] is above 200 µM. On to `C[C@]1(OC(=O)/C=C/c2ccccc2)CC[C@@H]2C(C(=O)O)=CO[C@@H](O[C@@H]3O[C@H](CO)[C@@H](O)[C@H](O)[C@H]3O)[C@@H]21`, for which the IC50 was 109 µM in test [1] and above 200 µM in test [2].

Values taken from ChEMBL document CHEMBL1781925, “HCV-NS3/4A protease inhibitory iridoid glucosides and dimeric foliamenthoic acid derivatives from Anarrhinum orientale” (J Nat Prod, 2011).
